Results: ChEMBL document CHEMBL1201862, “PubChem BioAssay data set” (2004)
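Protocol summary: plate cells (96-well), add compound at 5 concentrations, incubate 48 h, interpolate endpoints linearly. GI50 = concentration required for 50% inhibition of growth.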 Active and inactive are the calls of the source. Cut-off read from the data, not from the text of the source: active = GI50 up to about 1.1 µM and inactive = higher.

How the values were obtained:
Experiment in all cases: DTP human tumour cell line panel, 48 h
M14 = tested on: M14
SF-295 = tested on: SF-295
HCT-15 = tested on: HCT-15
KM12 = tested on: KM12
DLD-1 = tested on: DLD-1
NCI-H23 = tested on: NCI-H23
SN12C = tested on: SN12C
SF-268 = tested on: SF-268
SK-MEL-5 = tested on: SK-MEL-5
ACHN = tested on: ACHN
SK-MEL-2 = tested on: SK-MEL-2
COLO 205 = tested on: COLO 205
DMS-273 = tested on: DMS-273
HL-60 = tested on: HL-60
LOX IMVI = tested on: LOX IMVI
M19-MEL = tested on: M19-MEL
MOLT-4 = tested on: MOLT-4
OVCAR-5 = tested on: OVCAR-5
NCI-H226 = tested on: NCI-H226
TK-10 = tested on: TK-10
EKVX = tested on: EKVX
UO-31 = tested on: UO-31
HCT-116 = tested on: HCT-116
CCRF-CEM = tested on: CCRF-CEM
OVCAR-3 = tested on: OVCAR-3
SF-539 = tested on: SF-539
SNB-75 = tested on: SNB-75
XF498 = tested on: XF498
786-0 = tested on: 786-0
A549 = tested on: A549
K562 = tested on: K562
NCI-H460 = tested on: NCI-H460
UACC-257 = tested on: UACC-257
A498 = tested on: A498
RXF 631 = tested on: RXF 631
RXF 393 = tested on: RXF 393
SK-OV-3 = tested on: SK-OV-3
HOP-18 = tested on: HOP-18
UACC-62 = tested on: UACC-62
SK-MEL-28 = tested on: SK-MEL-28
SNB-19 = tested on: SNB-19
HCC 2998 = tested on: HCC 2998
SW-620 = tested on: SW-620
OVCAR-8 = tested on: OVCAR-8
HOP-92 = tested on: HOP-92
Malme-3M = tested on: Malme-3M
U-251 = tested on: U-251
SNB-78 = tested on: SNB-78
CAKI-1 = tested on: CAKI-1
HT-29 = tested on: HT-29
NCI-H522 = tested on: NCI-H522
OVCAR-4 = tested on: OVCAR-4
RPMI-8226 = tested on: RPMI-8226
LXFL 529 = tested on: LXFL 529
KM-20L2 = tested on: KM-20L2
HOP-62 = tested on: HOP-62
IGROV-1 = tested on: IGROV-1
DMS-114 = tested on: DMS-114

In the case of CCOc1ccc(/N=C/c2ccc3ccccc3n2)cc1, the GI50 (M14) was > 100 µM (inactive), the GI50 (SF-295) was > 100 µM (inactive) and the GI50 (HCT-15) was over 100 µM. The GI50 (KM12) was > 100 µM (inactive), the GI50 (DLD-1) was > 100 µM (inactive) and the GI50 (NCI-H23) was > 100 µM (inactive). The GI50 (SN12C) was > 100 µM (inactive), the GI50 (SF-268) was > 100 µM (inactive) and the GI50 (SK-MEL-5) was > 100 µM (inactive). For the same molecule, the GI50 (ACHN) was > 100 µM (inactive), the GI50 (SK-MEL-2) was > 100 µM (inactive) and the GI50 (COLO 205) was > 100 µM (inactive). The GI50 (DMS-273) was > 100 µM (inactive), the GI50 (HL-60) was > 47.1 µM (inactive) and the GI50 (LOX IMVI) was > 73.5 µM (inactive). The GI50 (M19-MEL) was > 100 µM (inactive), the GI50 (MOLT-4) was > 100 µM (inactive) and the GI50 (OVCAR-5) was > 100 µM (inactive). For the same molecule, the GI50 (NCI-H226) was > 100 µM (inactive), the GI50 (TK-10) was > 100 µM (inactive) and the GI50 (EKVX) was > 100 µM (inactive). The GI50 (UO-31) was 61.8 µM (inactive), the GI50 (HCT-116) was > 100 µM (inactive) and the GI50 (CCRF-CEM) was 35.7 µM (inactive). For the same molecule, the GI50 (OVCAR-3) was > 100 µM (inactive), the GI50 (SF-539) was > 100 µM (inactive) and the GI50 (SNB-75) was > 35.3 µM (inactive). For the same molecule, the GI50 (XF498) was > 100 µM (inactive), the GI50 (786-0) was > 100 µM (inactive) and the GI50 (A549) was > 100 µM (inactive). For the same molecule, the GI50 (K562) was 49.8 µM (inactive), the GI50 (NCI-H460) was > 100 µM (inactive) and the GI50 (UACC-257) was > 100 µM (inactive). The GI50 (A498) was > 100 µM (inactive), the GI50 (RXF 631) was > 100 µM (inactive) and the GI50 (RXF 393) was > 100 µM (inactive). For the same molecule, the GI50 (SK-OV-3) was > 100 µM (inactive), the GI50 (HOP-18) was > 100 µM (inactive) and the GI50 (UACC-62) was > 100 µM (inactive). The GI50 (SK-MEL-28) was > 100 µM (inactive), the GI50 (SNB-19) was > 100 µM (inactive) and the GI50 (HCC 2998) was > 100 µM (inactive). The GI50 (SW-620) was > 100 µM (inactive), the GI50 (OVCAR-8) was > 100 µM (inactive) and the GI50 (HOP-92) was > 75.3 µM (inactive). For the same molecule, the GI50 (Malme-3M) was > 100 µM (inactive), the GI50 (U-251) was > 100 µM (inactive) and the GI50 (SNB-78) was > 100 µM (inactive). For the same molecule, the GI50 (CAKI-1) was > 100 µM (inactive), the GI50 (HT-29) was > 100 µM (inactive) and the GI50 (NCI-H522) was > 100 µM (inactive). For the same molecule, the GI50 (OVCAR-4) was > 100 µM (inactive), the GI50 (RPMI-8226) was > 87.1 µM (inactive) and the GI50 (LXFL 529) was > 100 µM (inactive). For the same molecule, the GI50 (KM-20L2) was > 100 µM (inactive), the GI50 (HOP-62) was > 100 µM (inactive) and the GI50 (IGROV-1) was > 100 µM (inactive).

In the case of COc1cc(/C=C(\NC(=O)c2ccccc2)c2nc3ccc4c(c3[nH]2)C(=O)c2ccccc2C4=O)cc(OC)c1OC, the GI50 (M14) was 63.1 µM (inactive), the GI50 (SF-295) was 55.7 µM (inactive) and the GI50 (HCT-15) was 35.7 µM. For the same molecule, the GI50 (KM12) was 8.05 µM (inactive), the GI50 (DLD-1) was 7.11 µM (inactive) and the GI50 (NCI-H23) was 55.6 µM (inactive). The GI50 (SN12C) was 32.5 µM (inactive), the GI50 (SF-268) was 8.91 µM (inactive) and the GI50 (SK-MEL-5) was 35 µM (inactive). The GI50 (SK-MEL-2) was 50.5 µM (inactive), the GI50 (COLO 205) was > 100 µM (inactive) and the GI50 (DMS-273) was 40.7 µM (inactive). For the same molecule, the GI50 (DMS-114) was 32.4 µM (inactive), the GI50 (LOX IMVI) was 20.3 µM (inactive) and the GI50 (M19-MEL) was > 100 µM (inactive). For the same molecule, the GI50 (MOLT-4) was 2.52 µM (inactive), the GI50 (OVCAR-5) was > 100 µM (inactive) and the GI50 (NCI-H226) was > 100 µM (inactive). For the same molecule, the GI50 (TK-10) was 29.2 µM (inactive), the GI50 (EKVX) was 44 µM (inactive) and the GI50 (UO-31) was 2.36 µM (inactive). The GI50 (HCT-116) was 23.1 µM (inactive), the GI50 (CCRF-CEM) was 0.687 µM (active) and the GI50 (OVCAR-3) was 38.1 µM (inactive). For the same molecule, the GI50 (SF-539) was 20.1 µM (inactive), the GI50 (SNB-75) was 22.9 µM (inactive) and the GI50 (XF498) was > 100 µM (inactive). For the same molecule, the GI50 (786-0) was 28.2 µM (inactive), the GI50 (A549) was 21.4 µM (inactive) and the GI50 (K562) was 28 µM (inactive). For the same molecule, the GI50 (UACC-257) was > 100 µM (inactive), the GI50 (A498) was 13.1 µM (inactive) and the GI50 (RXF 631) was 58.7 µM (inactive). For the same molecule, the GI50 (RXF 393) was 22.8 µM (inactive), the GI50 (SK-OV-3) was 18.6 µM (inactive) and the GI50 (UACC-62) was 38.1 µM (inactive). The GI50 (SK-MEL-28) was 77.6 µM (inactive), the GI50 (SNB-19) was 99.1 µM (inactive) and the GI50 (HCC 2998) was > 100 µM (inactive). For the same molecule, the GI50 (SW-620) was 38.3 µM (inactive), the GI50 (OVCAR-8) was 41.6 µM (inactive) and the GI50 (HOP-92) was 25.4 µM (inactive). The GI50 (Malme-3M) was > 100 µM (inactive), the GI50 (U-251) was 31.9 µM (inactive) and the GI50 (SNB-78) was 76.7 µM (inactive). The GI50 (CAKI-1) was 10.1 µM (inactive), the GI50 (HT-29) was > 100 µM (inactive) and the GI50 (NCI-H522) was 7.24 µM (inactive). For the same molecule, the GI50 (OVCAR-4) was 69.3 µM (inactive), the GI50 (RPMI-8226) was 2.92 µM (inactive) and the GI50 (LXFL 529) was 49 µM (inactive). For the same molecule, the GI50 (KM-20L2) was > 100 µM (inactive), the GI50 (HOP-62) was > 100 µM (inactive) and the GI50 (IGROV-1) was 10.7 µM (inactive).
